pEC50: −log10 of the molar value.
Legend:
rat = assay: Low-intensity tail flick test (rat); format: in vivo; details: for ED50: po, peroral, at time of maximum efficacy
Description: Method II. Low-Intensity Tail Flick Test (Rat)
In the low-intensity tail flick test, the determination of the antinociceptive effect of the compounds according to the invention towards an acute noxious thermal stimulus is carried out by measuring the withdrawal reflex of the rat tail (tail flick) in response to a radiant heat beam (analgesia meter; model 2011 of the company Rhema Labortechnik, Hofheim, Germany) according to the method described by D'Amour and Smith (J. Pharm. Exp. Ther. 72, 74 79 (1941). To this end, the rats were placed in a plexiglas restrainer, and a low-intensity radiant heat beam (48° C.) was focused onto the dorsal surface of the tail root. The stimulus intensity was adjusted to result in a mean pre-drug control withdrawal latency of about 7 s, thus also allowing a supraspinal modulation of the spinally mediated acute nociceptive reflex. A cutoff time of 30 s was applied to avoid tissue damage. Male Sprague-Dawley rats (Janvier, Le Genest St. Isle, Frankreich) with weights of 200-250 g were used. 10 rats were used per group. Before administration of a compound according to the invention, the animals were pre-tested twice in the course of five minutes and the mean of these measurements was calculated as the pre-test mean. The antinociceptive effect was determined at 20, 40 and 60 min after peroral compound administration. The antinociceptive effect was calculated based on the increase in the tail withdrawal latency according to the following formula and is expressed as percentage of the maximum possible effect (MPE [%]): MPE=[(T1−T0)/(T2−T0)]*100
In this, T0 is the control latency time before and T1 the latency time after administration of the compound, T2 is the cutoff time and MPE is the maximum possible effect. Employing variant analysis (repeated measures ANOVA) allowed testing of statistically significant differences between the compounds according to the invention and the vehicle group. The significance level was set to p≦0.05. To determine the dose dependency, the particular compound according to the invention was administered in 3-5 logarithmically increasing doses, including a threshold dose and a maximum effective dose, and the ED50 values were determined with the aid of regression analysis. The ED50 calculation was performed at the time of maximum efficacy (usually 20 min after administration of the compounds).

KCNQ2/3 channels = biological target: T1, KCNQ2/3 channels (Homo sapiens, UniProt O43525+O43526); assay: Fluorescence assay using a voltage sensitive dye (fluorimetry); format: cell-based; details: CHO-K1 cells expressing KCNQ2/3 channels; for Emax: relative to retigabine (RTG) = 100%, read-out: Fluorimetry % efficacy (RTG = 100%)
T1 construct: expressed in transfected cells; host or cells: CHO-K1 cells kept under selection antibiotics
Description: Pharmacological Experiments Method I. Fluorescence Assay Using a Voltage Sensitive Dye (Fluorimetry)
[…] CHO-K1 cells expressing KCNQ2/3 channels are cultivated adherently at 37° C., 5% CO2 and 95% humidity in cell culture bottles (e.g. 80 cm^2 TC flasks, Nunc) with DMEM-high glucose (Sigma Aldrich, D7777) including 10% FCS (PAN Biotech, e.g. 3302-P270521) or alternatively MEM Alpha Medium (1×, liquid, Invitrogen, #22571), 10% fetal calf serum (FCS) (Invitrogen, #10270-106, heat-inactivated) and the necessary selection antibiotics.
Before being sown out for the measurements, the cells are washed with 1×DPBS buffer Ca^2+/Mg^2+-free (e.g. Invitrogen, #14190-094) and detached from the bottom of the culture vessel by using Accutase (PAA Laboratories, #L11-007) (incubation with Accutase for 15 min at 37° C.). The cell number is determined using a CASY™ cell counter (TCC, Schärfe System). Depending on the optimal density for each individual cell line, 20,000-30,000 cells/well/100 μl are seeded onto 96-well Corning™ CellBIND™ assay plates (Flat Clear Bottom Black Polystyrene Microplates, #3340). Freshly seeded cells are then left to settle for one hour at room temperature, followed by incubation for 24 hours at 37° C., 5% CO2 and 95% humidity.
The voltage-sensitive fluorescent dye from the Membrane Potential Assay Kit (Red™ Bulk format part R8123 for FLIPR, MDS Analytical Technologies™) is prepared by dissolving the contents of one vessel Membrane Potential Assay Kit Red Component A in 200 ml of extracellular buffer (ES buffer, 120 mM NaCl, 1 mM KCl, 10 mM HEPES, 2 mM CaCl2, 2 mM MgCl2, 10 mM glucose; pH 7.4). After removal of the nutrient medium, the cells are washed once with 200 μl of ES buffer, then loaded for 45 min at room temperature in 100 μl of dye solution in the dark.
Fluorescence measurements are carried out in a BMG Labtech FLUOstar™, BMG Labtech NOVOstar™ or BMG Labtech POLARstar™ instrument (525 nm excitation, 560 nm emission, Bottom Read mode). After incubation with the dye, 50 μl of the test substances in the desired concentrations, or 50 μl of ES buffer for control purposes, are applied to the wells of the assay plate and incubated for 30 min at room temperature while being shielded from light. The fluorescence intensity of the dye is then measured for 5 min and the fluorescence value F1 of each well is thus determined at a given, constant time. 15 μl of a KCl solution are then added to each well (final concentration of potassium ions 92 mM). The change in fluorescence intensity is subsequently monitored until all the relevant values have been obtained (mainly 5-30 min). At a given time post KCl application, a fluorescence value F2 is determined, in this case at the time of the fluorescence peak.
For calculation, the fluorescence intensity F2 is corrected for the fluorescence intensity F1, and the activity (ΔF/F) of the target compound on the potassium channel is determined as follows:
In order to determine whether a substance has agonistic activity,
A substance has an agonistic activity on the potassium channel if
[formula] increases dose dependently.
Calculations of EC50 and IC50 values are carried out with the aid of ‘Prism v4.0’ software (GraphPad Software™).

| SMILES | pEC50 (KCNQ2/3 channels) | Emax (KCNQ2/3 channels) | ED50 (rat) | Low intensity tail flick, rat, peroral, MPE (dose) (rat; dose 10.00 mg/kg) | Low intensity tail flick, rat, peroral, MPE (dose) (rat; dose 3.16 mg/kg) |
| --- | --- | --- | --- | --- | --- |
| Cc1c(C(=O)NCc2ccc(F)cc2)c(=O)n(C)c2cc(C(F)(F)F)ccc12 [Example 6, N-[(4-fluorophenyl)-methyl]-1,4-dimethyl-2-oxo-7-(trifluoromethyl)-1H-quinoline-3-carboxylic acid amide] | 6.72 | 169% | 0.6 mg/kg |  |  |
| COCCn1c(=O)c(C(=O)NCc2ccc(F)cc2)c(C)c2ccc(C(F)(F)F)cc21 [Example 7, N-[(4-fluorophenyl)-methyl]-1-(2-methoxy-ethyl)-4-methyl-2-oxo-7-(trifluoromethyl)-1H-quinoline-3-carboxylic acid amide] | 6.22 | 146% |  |  | 47 (3.16) % |
| Cc1c(C(=O)NCc2ccc(F)cc2)c(=S)n(C)c2cc(C(F)(F)F)ccc12 [Example 36, N-[(4-fluorophenyl)-methyl]-1,4-dimethyl-2-thioxo-7-(trifluoromethyl)-1H-quinoline-3-carboxylic acid amide] | 6.90 | 99% |  |  |  |
| Cc1c(C(=O)NCc2cccc(F)c2)c(=O)n(C)c2cc(Cl)ccc12 [Example 37, 7-chloro-N-[(3-fluorophenyl)-methyl]-1,4-dimethyl-2-oxo-1H-quinoline-3-carboxylic acid amide] | 6.14 | 139% |  |  |  |
| CCCCCn1c(=O)c(C(=O)NCc2cccc(F)c2)c(C)c2ccc(C(F)(F)F)cc21 [Example 41, N-[(3-fluorophenyl)-methyl]-4-methyl-2-oxo-1-pentyl-7-(trifluoromethyl)-1H-quinoline-3-carboxylic acid amide] |  | 18% |  |  |  |
| Cn1c(=O)c(C(=O)NCc2cccc(F)c2)c(C(F)(F)F)c2ccccc21 [Example 42, N-[(3-fluorophenyl)-methyl]-1-methyl-2-oxo-4-(trifluoromethyl)-1H-quinoline-3-carboxylic acid amide] | 5.30 | 103% |  |  |  |
| Cc1c(C(=O)NCc2cccc(F)c2)c(=O)n(C2CCOCC2)c2cc(C(F)(F)F)ccc12 [Example 44, N-[(3-fluorophenyl)-methyl]-4-methyl-2-oxo-1-tetrahydro-pyran-4-yl-7-(trifluoromethyl)-1H-quinoline-3-carboxylic acid amide] |  | 36% |  |  |  |

Now from value to compound, other results behind:

| pEC50 (KCNQ2/3 channels) | Emax (KCNQ2/3 channels) | SMILES | ED50 (rat) | Low intensity tail flick, rat, peroral, MPE (dose) (rat; dose 10.00 mg/kg) | Low intensity tail flick, rat, peroral, MPE (dose) (rat; dose 3.16 mg/kg) |
| --- | --- | --- | --- | --- | --- |
| 6.61 | 177% | Cc1c(C(=O)NCc2cccc(F)c2)c(=O)n(C)c2cc(C(F)(F)F)ccc12 [Example 1, N-[(3-fluorophenyl)-methyl]-1,4-dimethyl-2-oxo-7-(trifluoromethyl)-1H-quinoline-3-carboxylic acid amide] | 2.3 mg/kg |  |  |
| 6.91 | 101% | Cc1c(C(=O)NCc2cccc(F)c2)c(=S)n(C)c2cc(C(F)(F)F)ccc12 [Example 3, N-[(3-fluorophenyl)-methyl]-1,4-dimethyl-2-thioxo-7-(trifluoromethyl)-1H-quinoline-3-carboxylic acid amide] |  | 24 (10.00) % |  |
| 6.07 | 195% | COCCn1c(=O)c(C(=O)NCc2cccc(F)c2)c(C)c2ccc(C(F)(F)F)cc21 [Example 4, N-[(3-fluorophenyl)-methyl]-1-(2-methoxy-ethyl)-4-methyl-2-oxo-7-(trifluoromethyl)-1H-quinoline-3-carboxylic acid amide] | 2.8 mg/kg |  |  |
| 6.94 | 118% | COCC(C)n1c(=O)c(C(=O)NCc2cccc(F)c2)c(C)c2ccc(C(F)(F)F)cc21 (stereo not shown) [Example 35, N-[(3-fluorophenyl)-methyl]-1-(2-methoxy-1-methyl-ethyl)-4-methyl-2-oxo-7-(trifluoromethyl)-1H-quinoline-3-carboxylic acid amide] |  |  |  |
| 5.74 | 160% | Cc1c(C(=O)NCc2cccc(F)c2)c(=O)n(CCO)c2cc(C(F)(F)F)ccc12 [Example 38, N-[(3-fluorophenyl)-methyl]-1-(2-hydroxy-ethyl)-4-methyl-2-oxo-7-(trifluoromethyl)-1H-quinoline-3-carboxylic acid amide] |  |  |  |
|  | 43% | CCOCCn1c(=O)c(C(=O)NCc2cccc(F)c2)c(C)c2ccc(C(F)(F)F)cc21 [Example 39, 1-(2-ethoxy-ethyl)-N-[(3-fluorophenyl)-methyl]-4-methyl-2-oxo-7-(trifluoromethyl)-1H-quinoline-3-carboxylic acid amide] |  |  |  |
| 7.12 | 145% | Cc1c(C(=O)NCc2cccc(F)c2)c(=O)n(C(C)C)c2cc(C(F)(F)F)ccc12 [Example 40, N-[(3-fluorophenyl)-methyl]-1-isopropyl-4-methyl-2-oxo-7-(trifluoromethyl)-1H-quinoline-3-carboxylic acid amide] |  |  |  |
| 5.77 | 100% | COC(C)Cn1c(=O)c(C(=O)NCc2cccc(F)c2)c(C)c2ccc(C(F)(F)F)cc21 (stereo not shown) [Example 43, N-[(3-fluorophenyl)-methyl]-1-(2-methoxy-propyl)-4-methyl-2-oxo-7-(trifluoromethyl)-1H-quinoline-3-carboxylic acid amide] |  |  |  |
| 6.67 | 190% | COc1c(C(=O)NCc2cccc(F)c2)c(=O)n(C)c2cc(C(F)(F)F)ccc12 [Example 45, N-[(3-fluorophenyl)-methyl]-4-methoxy-1-methyl-2-oxo-7-(trifluoromethyl)-1H-quinoline-3-carboxylic acid amide] |  |  |  |

Reference: patent publication US8653102B2, “Substituted 2-oxo- and 2-thioxo-dihydroquinoline-3-carboxamides as KCNQ2/3 modulators” (Gruenenthal GmbH, priority 2010, dated 2014)
